US10689354B2, “Aminoazole derivative” (Teijin Pharma Limited, priority 2015, dated 2020)

What was measured:
[1] = biological target: T1, androgen receptor (AR-LBD) (Rattus norvegicus, UniProt P15207); assay: Evaluation of androgen receptor affinity (PolarScreen Androgen Receptor Competitor Assay Kit, Red; fluorescence polarization); settings: 22° C. for 5 hours, relative to binding rate of 1 μM DHT, read-out: AR affinity (pEC50) (converted)
T1 construct: 5 μL of 2×AR-LBD/Fluoromone AL Red Complex contained in the kit; purchased Invitrogen
T1 sequence (P15207 651-882 limits assumed): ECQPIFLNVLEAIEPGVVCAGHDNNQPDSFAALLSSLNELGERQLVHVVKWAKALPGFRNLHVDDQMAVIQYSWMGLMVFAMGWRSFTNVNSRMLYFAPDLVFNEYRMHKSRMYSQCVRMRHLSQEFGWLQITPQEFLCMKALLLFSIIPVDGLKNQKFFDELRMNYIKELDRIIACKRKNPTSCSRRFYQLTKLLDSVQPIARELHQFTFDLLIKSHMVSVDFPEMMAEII
Outline: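 Fluorescence polarization competition assay: compound was incubated in duplicate with the kit's AR-LBD/Fluoromone AL Red complex for 5 h at 22 °C. Binding was expressed relative to 1 μM DHT, and pEC50 was derived by 4-parameter fit.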

[2] = biological target: T2, human androgen receptor (Homo sapiens, UniProt P10275); assay: Reporter assay of an androgen receptor responsive sequence (luciferase, transiently transfected HEK293 cells); assay type: cell-based; settings: 24 hours incubation, relative to activity of 100 nM DHT, read-out: AR transcriptive activity (pEC50) (converted)
T2 construct: expressed in transfected cells; host or cells: HEK293
T2 sequence (P10275 1-920): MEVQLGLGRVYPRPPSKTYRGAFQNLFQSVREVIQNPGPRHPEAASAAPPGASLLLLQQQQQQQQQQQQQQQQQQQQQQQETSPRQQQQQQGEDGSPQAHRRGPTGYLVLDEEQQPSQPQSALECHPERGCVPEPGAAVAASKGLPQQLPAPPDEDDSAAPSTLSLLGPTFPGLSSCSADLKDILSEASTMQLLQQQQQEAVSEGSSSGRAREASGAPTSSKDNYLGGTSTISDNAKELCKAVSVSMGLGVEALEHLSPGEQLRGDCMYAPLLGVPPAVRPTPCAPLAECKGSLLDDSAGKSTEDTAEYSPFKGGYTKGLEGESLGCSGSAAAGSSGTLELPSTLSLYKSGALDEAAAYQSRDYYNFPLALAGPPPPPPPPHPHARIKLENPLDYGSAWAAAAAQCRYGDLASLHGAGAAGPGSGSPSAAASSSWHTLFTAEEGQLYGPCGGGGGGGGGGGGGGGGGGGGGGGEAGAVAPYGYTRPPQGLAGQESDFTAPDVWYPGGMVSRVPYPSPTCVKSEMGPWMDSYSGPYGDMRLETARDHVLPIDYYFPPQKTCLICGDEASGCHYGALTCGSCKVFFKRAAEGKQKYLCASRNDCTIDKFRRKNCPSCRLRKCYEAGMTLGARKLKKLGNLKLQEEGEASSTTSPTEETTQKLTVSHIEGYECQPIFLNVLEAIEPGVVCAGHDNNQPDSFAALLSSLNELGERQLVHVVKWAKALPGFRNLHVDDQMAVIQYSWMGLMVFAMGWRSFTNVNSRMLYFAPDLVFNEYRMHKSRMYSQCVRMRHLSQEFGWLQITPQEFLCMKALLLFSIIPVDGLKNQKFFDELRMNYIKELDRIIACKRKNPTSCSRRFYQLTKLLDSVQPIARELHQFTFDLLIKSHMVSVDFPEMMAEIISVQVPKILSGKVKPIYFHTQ
Outline: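 HEK293 cells transiently transfected for 3 h with ARE-firefly luciferase, full-length human AR and TK-Renilla plasmids, then exposed to compound for 24 h at 37 °C in 5% charcoal-treated FBS/DMEM. Dual-Glo luminescence read; pEC50 from 4-parameter fit relative to 100 nM DHT.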

Row | Structure (SMILES) | EC50 [1] [µM] | EC50 [2] [µM]
1 | Cc1sc(N(CC2CCN(C)CC2)c2ccc(C#N)cc2)nc1C(=O)NS(C)(=O)=O [Compound 351, 2-[4-cyano-N-[(1-methyl-4-piperidyl)methyl]anilino]-5-methyl-N-methylsulfonyl-thiazole-4-carboxamide] | > 2 | > 10
2 | Cc1sc(N(Cc2ccc3ncccc3c2)c2ccc(C#N)cc2)nc1C(=O)NS(C)(=O)=O [Compound 403, 2-[4-cyano-N-(6-quinolylmethyl)anilino]-5-methyl-N-methylsulfonyl-thiazole-4-carboxamide] | 0.251 | 0.251
3 | Cc1oc(N(Cc2ccc(Cl)cc2)c2ccc(C#N)cc2)nc1C(=O)NS(=O)(=O)C1CC1 [Compound 628, 2-[N-[(4-chlorophenyl)methyl]-4-cyano-anilino]-N-cyclopropylsulfonyl-5-methyl-oxazole-4-carboxamide] | 0.2 | > 10
4 | COCCCS(=O)(=O)NC(=O)c1nc(N(Cc2cnc(C(F)(F)F)c(F)c2)c2ccc(C#N)cc2)sc1C [Compound 533, 2-[4-cyano-N-[[5-fluoro-6-(trifluoromethyl)-3-pyridyl]methyl]anilino]-N-(3-methoxypropylsulfonyl)-5-methyl-thiazole-4-carboxamide] | 0.158 | 0.794
5 | Cc1sc(N(Cc2ccc(OC(F)(F)F)cc2)c2ccc(C#N)cc2)nc1C(=O)NS(=O)(=O)CCCCO [Example 201, 2-[4-cyano-N-[[4-(trifluoromethoxy)phenyl]methyl]anilino]-N-(4-hydroxybutylsulfonyl)-5-methyl-thiazole-4-carboxamide] | 0.0398 | 0.0398
6 | COCCCCS(=O)(=O)NC(=O)c1nc(N(Cc2ccc(OC(F)(F)F)cc2)c2ccc(C#N)cc2)sc1C [Compound 539, 2-[4-cyano-N-[[4-(trifluoromethoxy)phenyl]methyl]anilino]-N-(4-methoxybutylsulfonyl)-5-methyl-thiazole-4-carboxamide] | 0.0158 | 0.158
7 | CS(=O)(=O)NC(=O)c1nc(N(Cc2ccc(C(F)(F)F)cn2)c2ccc(C#N)cc2)oc1C1CC1 [Compound 649, 2-[4-cyano-N-[[5-(trifluoromethyl)-2-pyridyl]methyl]anilino]-5-cyclopropyl-N-methylsulfonyl-oxazole-4-carboxamide] | 0.631 | > 10
8 | Cc1sc(N(Cc2c(F)cccc2F)c2ccc(C#N)cc2)nc1C(=O)NS(C)(=O)=O [Compound 124, 2-[4-cyano-N-[(2,6-difluorophenyl)methyl]anilino]-5-methyl-N-methylsulfonyl-thiazole-4-carboxamide] | 0.0631 | 0.631
9 | Cc1sc(N(Cc2cccc3ccsc23)c2ccc(C#N)cc2)nc1C(=O)NS(C)(=O)=O [Compound 378, 2-[N-(benzothiophen-7-ylmethyl)-4-cyano-anilino]-5-methyl-N-methylsulfonyl-thiazole-4-carboxamide] | 0.0251 | 0.0501
10 | Cc1sc(N(CCc2cccnc2)Cc2ccc(Cl)cc2)nc1C(=O)NS(C)(=O)=O [Compound 488, 2-[(4-chlorophenyl)methyl-[2-(3-pyridyl)ethyl]amino]-5-methyl-N-methylsulfonyl-thiazole-4-carboxamide] | > 2 | > 10
11 | Cc1sc(N(Cc2ccc(F)c(C(F)(F)F)c2)c2ccc(C#N)cc2)nc1C(=O)NS(C)(=O)=O [Example 173, 2-[4-cyano-N-[[4-fluoro-3-(trifluoromethyl)phenyl]methyl]anilino]-5-methyl-N-methylsulfonyl-thiazole-4-carboxamide] | 0.0251 | 0.0794
12 | Cc1sc(N(C[C@@H]2CCCC[C@H](O)C2)c2ccc(C#N)cc2)nc1C(=O)NS(C)(=O)=O (racemic) [Compound 473, 2-[4-cyano-N-[[cis-3-hydroxycycloheptyl]methyl]anilino]-5-methyl-N-methylsulfonyl-thiazole-4-carboxamide] | 0.631 | 1.26
13 | Cc1sc(N(Cc2ccc(OCC3CCOCC3)cc2)c2ccc(C#N)cc2)nc1C(=O)NS(C)(=O)=O [Compound 576, 2-[4-cyano-N-[[4-(tetrahydropyran-4-ylmethoxy)phenyl]methyl]anilino]-5-methyl-N-methylsulfonyl-thiazole-4-carboxamide] | 0.0631 | 1.26
14 | CCS(=O)(=O)NC(=O)c1nc(N(Cc2ccc(Cl)cc2)c2ccc(C#N)cc2)oc1C [Compound 627, 2-[N-[(4-chlorophenyl)methyl]-4-cyano-anilino]-N-ethylsulfonyl-5-methyl-oxazole-4-carboxamide] | 0.0501 | 1
15 | Cc1sc(N(Cc2cccc3nsnc23)c2ccc(C#N)cc2)nc1C(=O)NS(C)(=O)=O [Compound 437, 2-[N-(2,1,3-benzothiadiazol-4-ylmethyl)-4-cyano-anilino]-5-methyl-N-methylsulfonyl-thiazole-4-carboxamide] | 0.0501 | 0.126
16 | CCC(C)CN(c1ccc(C#N)cc1)c1nc(C(=O)NS(C)(=O)=O)c(C)s1 (stereo not shown) [Compound 89, 2-[4-cyano-N-(2-methylbutyl)anilino]-5-methyl-N-methylsulfonyl-thiazole-4-carboxamide] | 0.501 | > 10

Further lines, results first:

Row | EC50 [1] [µM] | EC50 [2] [µM] | Structure (SMILES)
17 | 0.0501 | 1.26 | Cc1sc(N(Cc2ccccc2)c2ccc(Cl)c(Cl)c2)nc1C(=O)NS(C)(=O)=O [Compound 37, 2-(N-benzyl-3,4-dichloro-anilino)-5-methyl-N-methylsulfonyl-thiazole-4-carboxamide]
18 | 0.0794 | 0.501 | Cc1sc(N(CCc2ccc3c(c2)OCO3)Cc2ccccc2)nc1C(=O)NS(C)(=O)=O [Compound 708, 2-[2-(1,3-benzodioxol-5-yl)ethyl-benzyl-amino]-5-methyl-N-methylsulfonyl-thiazole-4-carboxamide]
19 | 0.1 | 0.398 | Cc1sc(N(Cc2cccc(C#N)c2)c2ccc(C#N)cc2)nc1C(=O)NS(C)(=O)=O [Compound 9, 2-[4-cyano-N-[(3-cyanophenyl)methyl]anilino]-5-methyl-N-methylsulfonyl-thiazole-4-carboxamide]
20 | 0.0251 | 0.0501 | Cc1sc(N(Cc2ccc3ccccc3c2)c2ccc(C#N)cc2)nc1C(=O)NS(C)(=O)=O [Compound 25, 2-[4-cyano-N-(2-naphthylmethyl)anilino]-5-methyl-N-methylsulfonyl-thiazole-4-carboxamide]
21 | 0.0794 | 0.0501 | Cc1sc(N(Cc2cccc(F)c2)c2ccc(C#N)cc2)nc1C(=O)NS(C)(=O)=O [Compound 14, 2-[4-cyano-N-[(3-fluorophenyl)methyl]anilino]-5-methyl-N-methylsulfonyl-thiazole-4-carboxamide]
22 | 0.158 | > 10 | Cc1sc(N(CCOCc2ccccc2)c2ccc(C#N)cc2)nc1C(=O)NS(C)(=O)=O [Compound 367, 2-[N-(2-benzyloxyethyl)-4-cyano-anilino]-5-methyl-N-methylsulfonyl-thiazole-4-carboxamide]
23 | 0.316 | 0.631 | Cc1sc(N(Cc2cccc(N)c2)c2ccc(C#N)cc2)nc1C(=O)NS(C)(=O)=O [Example 203, 2-[N-[(3-aminophenyl)methyl]-4-cyano-anilino]-5-methyl-N-methylsulfonyl-thiazole-4-carboxamide]
